Experimental data as given in publication PMC10743905, “Design, Synthesis, and In Vitro and In Vivo Bioactivity Studies of Hydrazide–Hydrazones of 2,4-Dihydroxybenzoic Acid” (International Journal of Molecular Sciences, 2023).
Values after ≈ are worked out from the molar mass of the structure shown. “Also recorded” adds a separate entry of the source.

test system: Bordetella bronchiseptica ATCC 4617; assay: Broth microdilution MIC/MBC; format: cell-based; conditions: not given
Outline: (§1)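 MICs were determined by broth microdilution using two-fold compound dilutions (final 1000-0.488 µg/ml) in Mueller-Hinton broth for bacteria or RPMI 1640 with MOPS for yeasts. Inocula were 0.5 McFarland suspensions in 0.85% NaCl, following EUCAST/CLSI guidelines; compounds were dissolved in DMSO.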

SMILES	MBC/MIC
O=C(N/N=C/c1ccccc1[N+](=O)[O-])c1ccc(O)cc1O [Compound 19, 2,4-dihydroxy-N-[(2-nitrophenyl)methylidene]benzohydrazide]	> 1

same assay, conditions: ATCC4617

SMILES	MBC [µg/mL]	MIC [µg/mL]
O=C(N/N=C/c1ccccc1[N+](=O)[O-])c1ccc(O)cc1O [Compound 19, 2,4-dihydroxy-N-[(2-nitrophenyl)methylidene]benzohydrazide]	> 1000	1000 (≈ 3.32 mM)
O=C(N/N=C/c1cccc([N+](=O)[O-])c1)c1ccc(O)cc1O [Compound 20, 2,4-dihydroxy-N-[(3-nitrophenyl)methylidene]benzohydrazide]		> 1000

test system: Escherichia coli ATCC 25922; assay: Broth microdilution MIC/MBC; format: cell-based; conditions: not given
Outline: as §1

SMILES	MBC/MIC
O=C(N/N=C/c1ccccc1[N+](=O)[O-])c1ccc(O)cc1O [Compound 19, 2,4-dihydroxy-N-[(2-nitrophenyl)methylidene]benzohydrazide]	> 1

same assay, conditions: ATCC25922

SMILES	MBC [µg/mL]	MIC [µg/mL]
O=C(N/N=C/c1ccccc1[N+](=O)[O-])c1ccc(O)cc1O [Compound 19, 2,4-dihydroxy-N-[(2-nitrophenyl)methylidene]benzohydrazide]	> 1000	1000 (≈ 3.32 mM)
O=C(N/N=C/c1cccc([N+](=O)[O-])c1)c1ccc(O)cc1O [Compound 20, 2,4-dihydroxy-N-[(3-nitrophenyl)methylidene]benzohydrazide]		> 1000

test system: Enterococcus faecalis ATCC 29212; assay: Broth microdilution MIC/MBC; format: cell-based; conditions: not given
Outline: as §1

SMILES	MBC/MIC
O=C(N/N=C/c1ccccc1[N+](=O)[O-])c1ccc(O)cc1O [Compound 19, 2,4-dihydroxy-N-[(2-nitrophenyl)methylidene]benzohydrazide]	> 2

same assay, conditions: ATCC29212, read-out: MBC

SMILES	MBC [µg/mL]
O=C(N/N=C/c1ccccc1[N+](=O)[O-])c1ccc(O)cc1O [Compound 19, 2,4-dihydroxy-N-[(2-nitrophenyl)methylidene]benzohydrazide]	> 1000

same assay, conditions: ATCC29212, read-out: MIC

SMILES	MIC [µg/mL]
O=C(N/N=C/c1ccccc1[N+](=O)[O-])c1ccc(O)cc1O [Compound 19, 2,4-dihydroxy-N-[(2-nitrophenyl)methylidene]benzohydrazide]	500 (≈ 1.66 mM)
O=C(N/N=C/c1cccc([N+](=O)[O-])c1)c1ccc(O)cc1O [Compound 20, 2,4-dihydroxy-N-[(3-nitrophenyl)methylidene]benzohydrazide]	> 1000

test system: Bacillus cereus ATCC 10876; assay: Broth microdilution MIC/MBC; format: cell-based; conditions: not given
Outline: as §1

SMILES	MBC/MIC
O=C(N/N=C/c1ccccc1[N+](=O)[O-])c1ccc(O)cc1O [Compound 19, 2,4-dihydroxy-N-[(2-nitrophenyl)methylidene]benzohydrazide]	> 4

same assay, conditions: ATCC10876

SMILES	MBC [µg/mL]
O=C(N/N=C/c1ccccc1[N+](=O)[O-])c1ccc(O)cc1O [Compound 19, 2,4-dihydroxy-N-[(2-nitrophenyl)methylidene]benzohydrazide]	> 1000

same assay, conditions: ATCC10876, read-out: MIC

SMILES	MIC [µg/mL]
O=C(N/N=C/c1ccccc1[N+](=O)[O-])c1ccc(O)cc1O [Compound 19, 2,4-dihydroxy-N-[(2-nitrophenyl)methylidene]benzohydrazide]	250 (≈ 0.83 mM)
O=C(N/N=C/c1cccc([N+](=O)[O-])c1)c1ccc(O)cc1O [Compound 20, 2,4-dihydroxy-N-[(3-nitrophenyl)methylidene]benzohydrazide]	> 1000

test system: Klebsiella pneumoniae ATCC 13883; assay: Broth microdilution MIC/MBC; format: cell-based; conditions: not given
Outline: as §1

SMILES	MBC/MIC
O=C(N/N=C/c1ccccc1[N+](=O)[O-])c1ccc(O)cc1O [Compound 19, 2,4-dihydroxy-N-[(2-nitrophenyl)methylidene]benzohydrazide]	> 1

same assay, conditions: ATCC13883

SMILES	MBC [µg/mL]	MIC [µg/mL]
O=C(N/N=C/c1ccccc1[N+](=O)[O-])c1ccc(O)cc1O [Compound 19, 2,4-dihydroxy-N-[(2-nitrophenyl)methylidene]benzohydrazide]	> 1000	500 (≈ 1.66 mM)
O=C(N/N=C/c1cccc([N+](=O)[O-])c1)c1ccc(O)cc1O [Compound 20, 2,4-dihydroxy-N-[(3-nitrophenyl)methylidene]benzohydrazide]		> 1000

test system: Candida krusei ATCC 14243; assay: Broth microdilution MIC/MFC; format: cell-based; conditions: not given
Outline: as §1

SMILES	MFC/MIC
O=C(N/N=C/c1ccccc1[N+](=O)[O-])c1ccc(O)cc1O [Compound 19, 2,4-dihydroxy-N-[(2-nitrophenyl)methylidene]benzohydrazide]	> 2

same assay, conditions: Pichia kudriavzevii, ATCC14243, read-out: MFC

SMILES	MFC [µg/mL]
O=C(N/N=C/c1ccccc1[N+](=O)[O-])c1ccc(O)cc1O [Compound 19, 2,4-dihydroxy-N-[(2-nitrophenyl)methylidene]benzohydrazide]	> 1000

same assay, conditions: Pichia kudriavzevii, ATCC14243, read-out: MIC

SMILES	MIC [µg/mL]
O=C(N/N=C/c1ccccc1[N+](=O)[O-])c1ccc(O)cc1O [Compound 19, 2,4-dihydroxy-N-[(2-nitrophenyl)methylidene]benzohydrazide]	500 (≈ 1.66 mM)
O=C(N/N=C/c1cccc([N+](=O)[O-])c1)c1ccc(O)cc1O [Compound 20, 2,4-dihydroxy-N-[(3-nitrophenyl)methylidene]benzohydrazide]	> 1000

test system: Candida parapsilosis ATCC 22019; assay: Broth microdilution MIC/MFC; format: cell-based; conditions: not given
Outline: as §1

SMILES	MFC/MIC
O=C(N/N=C/c1ccccc1[N+](=O)[O-])c1ccc(O)cc1O [Compound 19, 2,4-dihydroxy-N-[(2-nitrophenyl)methylidene]benzohydrazide]	> 4
O=C(N/N=C/c1cccc([N+](=O)[O-])c1)c1ccc(O)cc1O [Compound 20, 2,4-dihydroxy-N-[(3-nitrophenyl)methylidene]benzohydrazide]	> 1

same assay, conditions: Lodderomyces parapsilosis, ATCC22019, read-out: MFC

SMILES	MFC [µg/mL]
O=C(N/N=C/c1ccccc1[N+](=O)[O-])c1ccc(O)cc1O [Compound 19, 2,4-dihydroxy-N-[(2-nitrophenyl)methylidene]benzohydrazide]	> 1000
O=C(N/N=C/c1cccc([N+](=O)[O-])c1)c1ccc(O)cc1O [Compound 20, 2,4-dihydroxy-N-[(3-nitrophenyl)methylidene]benzohydrazide]	> 1000

same assay, conditions: Lodderomyces parapsilosis, ATCC22019, read-out: MIC

SMILES	MIC [µg/mL]
O=C(N/N=C/c1ccccc1[N+](=O)[O-])c1ccc(O)cc1O [Compound 19, 2,4-dihydroxy-N-[(2-nitrophenyl)methylidene]benzohydrazide]	250 (≈ 0.83 mM)
O=C(N/N=C/c1cccc([N+](=O)[O-])c1)c1ccc(O)cc1O [Compound 20, 2,4-dihydroxy-N-[(3-nitrophenyl)methylidene]benzohydrazide]	1000 (≈ 3.32 mM)

test system: Bacillus subtilis ATCC 6633; assay: Broth microdilution MIC/MBC; format: cell-based; conditions: not given
Outline: as §1

SMILES	MBC/MIC
O=C(N/N=C/c1ccccc1[N+](=O)[O-])c1ccc(O)cc1O [Compound 19, 2,4-dihydroxy-N-[(2-nitrophenyl)methylidene]benzohydrazide]	> 4
O=C(N/N=C/c1cccc([N+](=O)[O-])c1)c1ccc(O)cc1O [Compound 20, 2,4-dihydroxy-N-[(3-nitrophenyl)methylidene]benzohydrazide]	> 4

same assay, conditions: ATCC6633

SMILES	MBC [µg/mL]
O=C(N/N=C/c1ccccc1[N+](=O)[O-])c1ccc(O)cc1O [Compound 19, 2,4-dihydroxy-N-[(2-nitrophenyl)methylidene]benzohydrazide]	> 1000
O=C(N/N=C/c1cccc([N+](=O)[O-])c1)c1ccc(O)cc1O [Compound 20, 2,4-dihydroxy-N-[(3-nitrophenyl)methylidene]benzohydrazide]	> 1000

same assay, conditions: ATCC6633, read-out: MIC

SMILES	MIC [µg/mL]
O=C(N/N=C/c1ccccc1[N+](=O)[O-])c1ccc(O)cc1O [Compound 19, 2,4-dihydroxy-N-[(2-nitrophenyl)methylidene]benzohydrazide]	250 (≈ 0.83 mM)
O=C(N/N=C/c1cccc([N+](=O)[O-])c1)c1ccc(O)cc1O [Compound 20, 2,4-dihydroxy-N-[(3-nitrophenyl)methylidene]benzohydrazide]	250 (≈ 0.83 mM)

test system: Danio rerio embryos; assay: Fish Embryo Acute Toxicity (FET) test, OECD No. 236; conditions: FET test, based on LC50
Description: Wild-type AB strain zebrafish (Danio rerio) were housed in the Experimental Medicine Centre of Medical University of Lublin (Lublin, Poland), where all the experimental procedures on embryos and larvae were carried out. The animals were kept on a recirculating water supply at 26 ± 1 °C and a 10/14 dark–light cycle, and they were fed with artemia and commercial feed. Danio rerio embryos were obtained from females between 4 and 15 months of age. […] In order to avoid genetic bias in the study, eggs were randomly collected from at least three breeding groups, rinsed, and placed in Petri dishes in the cultured medium, which for Danio rerio is E3 solution. […] In accordance with the legislation of the European Union and Poland, the experiments performed on the earliest life-stages of Danio rerio until 120 h post-fertilization (120 hpf), not defined as protected, are not subject to regulations for animal experimentation.
They address the testing of chemicals using the Fish Embryo Acute Toxicity (FET) test with the species Danio rerio.
Immediately after fertilization, eggs were placed in sterile 24-well plates and exposed for 96 h to at least five concentrations of the test chemical, ranging from 1 to 500 µM and prepared ex tempore on each day of exposure, according to the principle of one egg per well and one concentration per plate. In each plate, 20 wells were filled with the solutions of the tested substance, and 4 wells of the last column were a negative internal control with E3 medium. Each well was filled with 2 mL of solution. Positive control plates were also prepared according to this scheme with 4 mg/L of 3,4-dichloroaniline (Sigma-Aldrich, Poznań, Poland) and a negative control with E3, and a negative solvent control with 1% DMSO, which was used as a solvent for the tested substances. At four time points, microscopic observations were made every 24 h. As indicators of mortality (so-called terminal observations; when at least one of these occurs, embryonic death is declared), the following were recorded: the coagulation of embryos, a lack of somite formation, a lack of detachment of the tail from the yolk sac and a lack of a heartbeat, which was observed from the 48th hour of the study. To confirm the absence of a heartbeat, a microscopic observation was conducted at 80× magnification for one minute. Then, the solutions of the tested chemicals, to maintain their constant composition throughout the test, were replaced with fresh ones, and the plates were incubated for another 24 h in an incubator at 26 ± 1 °C. […] In addition, a quantitative and qualitative summary of the morphological and physiological abnormalities that occurred in the tested Danio rerio embryos and larvae was also made. These included yolk sac edema, pericardial edema, spinal flexure, head deformities, tail deformities, developmental delay defined as a lack of hatching success for 96 hpf larvae, and also bradycardia.
Regression analysis was performed with Excel, and the above-mentioned values were obtained from the linear type of regression analysis. […] The results obtained from the heart rate study of 96 hpf zebrafish larvae were subjected to statistical analysis using one-way analysis of variance (ANOVA) and a post hoc Bonferroni test. The significance level was taken as p < 0.05.

SMILES	toxicity for zebrafish embryos and larvae (in words)
O=C(N/N=C/c1ccccc1[N+](=O)[O-])c1ccc(O)cc1O [Compound 19, 2,4-dihydroxy-N-[(2-nitrophenyl)methylidene]benzohydrazide]	nontoxic; also recorded: negligible toxicity
O=C(N/N=C/c1cccc([N+](=O)[O-])c1)c1ccc(O)cc1O [Compound 20, 2,4-dihydroxy-N-[(3-nitrophenyl)methylidene]benzohydrazide]	nontoxic

same assay, conditions: zebrafish larvae 96 hpf

SMILES	percentage of non-lethal morphological abnormalities [%]
O=C(N/N=C/c1ccccc1[N+](=O)[O-])c1ccc(O)cc1O [Compound 19, 2,4-dihydroxy-N-[(2-nitrophenyl)methylidene]benzohydrazide]	≤ 25
O=C(N/N=C/c1cccc([N+](=O)[O-])c1)c1ccc(O)cc1O [Compound 20, 2,4-dihydroxy-N-[(3-nitrophenyl)methylidene]benzohydrazide]	≤ 25
